Results: PubChem BioAssay AID256 (DTP/NCI, 2004)
Values joined by “and” are separate entries in the source; they are usually repeats but may differ in a detail not shown here. Equal values may be shown once. Inconclusive results and toxic doses are left out. The calls were made as follows: active = survival T/C of 150% or more; inactive = T/C below 125% in these data.

System: CD2F1 mice, L1210 leukemia ip, survival T/C
Assay: NCI In Vivo Anticancer Drug Screen. Data for tumor model L1210 Leukemia (intraperitoneal) in CD2F1 (CDF1) mice
Settings: higher = longer survival
Procedure, shortened: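 Read-out first: treated-group measurement over vehicle-control measurement, expressed as a ratio. Animals bore a transplanted tumor line and were dosed with compound or vehicle.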

[1] = endpoint: mean survival time, dose: 100.0 mg/kg/injection, schedule: Q01DX009 (ip), vehicle: saline with Tween-80
[2] = endpoint: mean survival time, dose: 200.0 mg/kg/injection, schedule: Q01DX009 (ip), vehicle: saline with Tween-80
[3] = endpoint: mean survival time, dose: 400.0 mg/kg/injection, schedule: Q01DX009 (ip), vehicle: saline with Tween-80
[4] = endpoint: mean survival time, dose: 100.0 mg/kg/injection, schedule: Q04DX003 (ip), vehicle: saline with Tween-80
[5] = endpoint: mean survival time, dose: 200.0 mg/kg/injection, schedule: Q04DX003 (ip), vehicle: saline with Tween-80
[6] = endpoint: mean survival time, dose: 400.0 mg/kg/injection, schedule: Q04DX003 (ip), vehicle: saline with Tween-80
[7] = endpoint: mean survival time, dose: 100.0 mg/kg/injection, schedule: Q04DX002 (ip), vehicle: saline with Tween-80
[8] = endpoint: mean survival time, dose: 200.0 mg/kg/injection, schedule: Q04DX002 (ip), vehicle: saline with Tween-80
[9] = endpoint: mean survival time, dose: 400.0 mg/kg/injection, schedule: Q04DX002 (ip), vehicle: saline with Tween-80

Measured: T/C

N#CC1CCCC[N-]1.[NH-]CC[N-]CC[NH-].[Pt+4] (stereo not drawn)
inactive: endpoint: mean survival time, dose: 12.5 mg/kg/injection, schedule: Q01DX009 (ip), vehicle: water 93 % of control | endpoint: mean survival time, dose: 25.0 mg/kg/injection, schedule: Q01DX009 (ip), vehicle: water 95 % of control | endpoint: mean survival time, dose: 50.0 mg/kg/injection, schedule: Q01DX009 (ip), vehicle: water 97 % of control | endpoint: mean survival time, dose: 100.0 mg/kg/injection, schedule: Q01DX009 (ip), vehicle: water 88 % of control

Nc1nc(=S)c2[nH]c(-c3ccccc3)nc2[nH]1
inactive: endpoint: mean survival time, dose: 12.5 mg/kg/injection, schedule: Q01DX005 (ip), vehicle: other 96 % of control | endpoint: mean survival time, dose: 25.0 mg/kg/injection, schedule: Q01DX005 (ip), vehicle: other 90 % of control | endpoint: mean survival time, dose: 50.0 mg/kg/injection, schedule: Q01DX005 (ip), vehicle: other 93 % of control | endpoint: mean survival time, dose: 100.0 mg/kg/injection, schedule: Q01DX005 (ip), vehicle: other 93 % of control | endpoint: mean survival time, dose: 200.0 mg/kg/injection, schedule: Q01DX005 (ip), vehicle: other 90 % of control

O=C(O)c1cc(C(=O)O)c(C(=O)O)cc1C(=O)O.[NH2-].[NH2-].[NH2-].[NH2-].[Pt+2].[Pt+2]
inactive: endpoint: mean survival time, dose: 0.2 mg/kg/injection, schedule: Q04DX003 (ip), vehicle: water 124 % of control and 106 % of control | endpoint: mean survival time, dose: 0.39 mg/kg/injection, schedule: Q04DX003 (ip), vehicle: water 115 % of control and 119 % of control | endpoint: mean survival time, dose: 2.0 mg/kg/injection, schedule: Q04DX003 (ip), vehicle: water 98 % of control | endpoint: mean survival time, dose: 4.0 mg/kg/injection, schedule: Q04DX003 (ip), vehicle: water 97 % of control | endpoint: mean survival time, dose: 8.0 mg/kg/injection, schedule: Q04DX003 (ip), vehicle: water 106 % of control | endpoint: mean survival time, dose: 16.0 mg/kg/injection, schedule: Q04DX003 (ip), vehicle: water 110 % of control | endpoint: median survival time, dose: 0.12 mg/kg/injection, schedule: Q01DX009 (ip), vehicle: water 97 % of control | endpoint: median survival time, dose: 0.25 mg/kg/injection, schedule: Q01DX009 (ip), vehicle: water 97 % of control | endpoint: median survival time, dose: 0.5 mg/kg/injection, schedule: Q01DX009 (ip), vehicle: water 97 % of control | endpoint: median survival time, dose: 1.0 mg/kg/injection, schedule: Q01DX009 (ip), vehicle: water 92 % of control and 100 % of control and 112 % of control | endpoint: median survival time, dose: 2.0 mg/kg/injection, schedule: Q01DX009 (ip), vehicle: water 100 % of control and 101 % of control and 109 % of control | endpoint: median survival time, dose: 4.0 mg/kg/injection, schedule: Q01DX009 (ip), vehicle: water 124 % of control and 105 % of control | endpoint: median survival time, dose: 8.0 mg/kg/injection, schedule: Q01DX009 (ip), vehicle: water 124 % of control and 111 % of control (2×) | endpoint: median survival time, dose: 16.0 mg/kg/injection, schedule: Q01DX009 (ip), vehicle: water 96 % of control | endpoint: median survival time, dose: 32.0 mg/kg/injection, schedule: Q01DX009 (ip), vehicle: water 90 % of control

C1CC[N-]CC1.C1CC[N-]CC1.C1CC[N-]CC1.C1CC[N-]CC1.[Cl][Rh][Cl]
inactive: endpoint: mean survival time, dose: 6.25 mg/kg/injection, schedule: Q04DX003 (ip), vehicle: saline 98 % of control | endpoint: mean survival time, dose: 50.0 mg/kg/injection, schedule: Q01DX009 (ip), vehicle: saline 90 % of control

Cc1ccc(S(=O)(=O)NC(=O)O/N=C/c2ccccn2)cc1
inactive: [1] 100 % of control | [2] 91 % of control | [3] 100 % of control

CS/C(N)=N\S(=O)(=O)c1ccc(NC(C)=O)cc1
inactive: [1] 98 % of control | [2] 95 % of control | [3] 106 % of control

CC(=O)[C@H]1CC[C@H]2[C@@H]3CC[C@@H]4CC(=O)CC[C@]4(C)[C@H]3CC[C@]12C
inactive: [4] 96 % of control | [5] 96 % of control | [6] 96 % of control

CCCCCCCCN(C=O)CCCCCCCC
inactive: endpoint: mean survival time, dose: 25.0 mg/kg/injection, schedule: Q04DX002 (ip), vehicle: saline with Tween-80 93 % of control | endpoint: mean survival time, dose: 50.0 mg/kg/injection, schedule: Q04DX002 (ip), vehicle: saline with Tween-80 96 % of control | [7] 104 % of control

CC(C)(C)OOC(=O)c1ccccn1
inactive: [7] 95 % of control | [8] 95 % of control

CC(C)(C)N1CC1
inactive: [7] 102 % of control | [9] 94 % of control

COc1ccccc1C=NC(C)(C)CO
inactive: endpoint: mean survival time, dose: 75.0 mg/kg/injection, schedule: Q01DX001 (ip), vehicle: other 102 % of control | endpoint: mean survival time, dose: 150.0 mg/kg/injection, schedule: Q01DX001 (ip), vehicle: other 97 % of control | endpoint: mean survival time, dose: 300.0 mg/kg/injection, schedule: Q01DX001 (ip), vehicle: other 97 % of control

O=C(CC(=O)Oc1ccc(Cl)cc1Cl)Oc1ccc(Cl)cc1Cl
inactive: [4] 97 % of control | [5] 101 % of control | [6] 95 % of control

CC(C)OC(=S)S.[Pt]
inactive: endpoint: mean survival time, dose: 11.3 mg/kg/injection, schedule: Q04DX003 (ip), vehicle: saline with Tween-80 89 % of control | endpoint: mean survival time, dose: 22.5 mg/kg/injection, schedule: Q04DX003 (ip), vehicle: saline with Tween-80 97 % of control | endpoint: mean survival time, dose: 45.0 mg/kg/injection, schedule: Q04DX003 (ip), vehicle: saline with Tween-80 101 % of control | endpoint: mean survival time, dose: 90.0 mg/kg/injection, schedule: Q04DX003 (ip), vehicle: saline with Tween-80 97 % of control | endpoint: mean survival time, dose: 180.0 mg/kg/injection, schedule: Q04DX003 (ip), vehicle: saline with Tween-80 95 % of control

Nc1nnc2c3[nH]cnc3ncn12
inactive: endpoint: mean survival time, dose: 100.0 mg/kg/injection, schedule: Q01DX001 (ip), vehicle: Klucel (hydroxypropylcellulose) (HPC) 98 % of control | endpoint: mean survival time, dose: 200.0 mg/kg/injection, schedule: Q01DX001 (ip), vehicle: Klucel (hydroxypropylcellulose) (HPC) 95 % of control | endpoint: mean survival time, dose: 400.0 mg/kg/injection, schedule: Q01DX001 (ip), vehicle: Klucel (hydroxypropylcellulose) (HPC) 104 % of control

COc1nc(NC2OC(CO)C(O)C(O)C2O)c(C(C)=O)c(=O)n1C (stereo not drawn)
inactive: endpoint: median survival time, dose: 12.5 mg/kg/injection, schedule: Q01DX005 (ip), vehicle: saline with Tween-80 94 % of control | endpoint: median survival time, dose: 25.0 mg/kg/injection, schedule: Q01DX005 (ip), vehicle: saline with Tween-80 98 % of control | endpoint: median survival time, dose: 50.0 mg/kg/injection, schedule: Q01DX005 (ip), vehicle: saline with Tween-80 100 % of control | endpoint: median survival time, dose: 100.0 mg/kg/injection, schedule: Q01DX005 (ip), vehicle: saline with Tween-80 97 % of control | endpoint: median survival time, dose: 200.0 mg/kg/injection, schedule: Q01DX005 (ip), vehicle: saline with Tween-80 98 % of control

CC(=O)O/C=C1\CC2C3CC=C4CC(OC(C)=O)CCC4(C)C3CCC2(C)C1=O (stereo not drawn)
inactive: endpoint: mean survival time, dose: 25.0 mg/kg/injection, schedule: Q01DX001 (ip), vehicle: saline with Tween-80 100 % of control | endpoint: mean survival time, dose: 50.0 mg/kg/injection, schedule: Q01DX001 (ip), vehicle: saline with Tween-80 95 % of control | endpoint: mean survival time, dose: 100.0 mg/kg/injection, schedule: Q01DX001 (ip), vehicle: saline with Tween-80 95 % of control

CCOC(=O)C1CCCNC1=O (stereo not drawn)
inactive: endpoint: mean survival time, dose: 100.0 mg/kg/injection, schedule: Q01DX001 (ip), vehicle: saline 101 % of control | endpoint: mean survival time, dose: 200.0 mg/kg/injection, schedule: Q01DX001 (ip), vehicle: saline 94 % of control | endpoint: mean survival time, dose: 400.0 mg/kg/injection, schedule: Q01DX001 (ip), vehicle: saline 95 % of control

O=C(c1ccccc1)C12CC3CC1C2C3
inactive: endpoint: mean survival time, dose: 100.0 mg/kg/injection, schedule: Q04DX003 (ip), vehicle: saline 97 % of control | endpoint: mean survival time, dose: 200.0 mg/kg/injection, schedule: Q04DX003 (ip), vehicle: saline 100 % of control | endpoint: mean survival time, dose: 400.0 mg/kg/injection, schedule: Q04DX003 (ip), vehicle: saline 89 % of control

Nc1nc2c(ncn2-c2ccc(OCCNC(=O)Nc3cccc(S(=O)(=O)F)c3)cc2)c(=O)[nH]1
inactive: [7] 104 % of control | [8] 96 % of control | [9] 90 % of control
